Earlier results as cited in US10864304B2, “Anti-infective antimicrobial-containing biomaterials” (ATRIUM MEDICAL CORPORATION, priority 2009, dated 2020).

Tested on: bacteria
Conditions: previously reported (K. C. Chaw et al. 2005)

[Ag] [silver]
amount of silver needed to produce an antimicrobial effect: ~50 ppb
